Where a SMILES comes first, the peptide text is derived from it. The star is where a group is joined. For = O=C*
Experiments:
FPR2 [1] = details: cited from earlier work
Source text: The role of these residues in determining ligand selectivity was investigated by mutagenesis studies.

FPR2 [2] = molecular target: T1, FPR2 (Homo sapiens, UniProt P25090); assay: Competition binding: inhibition of WK(FITC)YMVm binding to FPR2 (wild type and mutants), HEK293F cells; details: FPR2 WT, mean ± SEM
T1 construct: expressed in transfected cells; host or cells: HEK293F cells, pTT5 vector, co-transfected with GαΔ6qi4myr (1:2 w/w)
T1 sequence (P25090 1-351): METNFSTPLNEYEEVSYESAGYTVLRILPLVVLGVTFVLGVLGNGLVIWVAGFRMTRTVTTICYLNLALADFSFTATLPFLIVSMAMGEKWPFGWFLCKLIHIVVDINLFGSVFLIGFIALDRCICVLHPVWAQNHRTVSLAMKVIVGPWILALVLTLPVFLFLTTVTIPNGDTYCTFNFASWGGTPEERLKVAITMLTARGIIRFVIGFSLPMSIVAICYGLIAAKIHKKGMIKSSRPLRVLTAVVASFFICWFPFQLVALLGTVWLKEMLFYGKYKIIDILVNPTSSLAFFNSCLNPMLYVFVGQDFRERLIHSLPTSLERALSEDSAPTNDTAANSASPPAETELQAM
Description: (§1) The genes of wild-type FPR1 and FPR2 and mutants with a Flag tag at the N termini were cloned into pTT5 vector (Invitrogen) and expressed in HEK293F cells (Invitrogen). Cells were harvested 48 h post transfection with 1 μg ml^−1 plasmid. Cell-surface expression of the receptors was measured by mixing 10 μl cells with 15 μl of TBS buffer supplemented with 4% BSA, 20% (v/v) viability-staining solution 7-AAD (Invitrogen, Cat#00-6993-50), and 0.1% (v/v) anti-FLAG M2-FITC antibody (Sigma, Cat#F4049) at 4 °C for 20 min. After incubation, 175 μl of TBS buffer was added and the fluorescent signal was measured using a flow-cytometry reader (Guava easyCyte HT, Millipore). Then, the cells were washed and resuspended to a final concentration of 1 × 10^6 cells per ml in Hanks’ Balanced Salt Solution (HBSS) buffer supplemented with 0.5% bovine serum albumin (BSA) and 20 mM HEPES, pH 7.4.
(§2) The mean fluorescent intensity of each well was then read by the FCM reader. Total binding and nonspecific binding were measured in the absence and presence of the unlabeled ligand (200 μM WKYMVm), respectively. […] Mean fluorescent-intensity values were measured by flow cytometry. Data were analyzed using Prism 8.0 (GraphPad software).

FPR2 [3] = molecular target: T1, FPR2; assay: Inositol-phosphate (IP) accumulation assay, FPR2 (wild type and mutants) with chimeric GαΔ6qi4myr in HEK293F cells; format: cell-based; details: FPR2 WT; mean ± SEM; SEM
Description: Flag-tagged wild-type FPR1 and FPR2 and mutants were cloned into the pTT5 vector and expressed in HEK293F cells. Cells were cotransfected with the plasmids of receptor and a chimeric Gα protein GαΔ6qi4myr, which redirects the Gαi signaling pathway to the Gαq phospholipase-C pathway, at a ratio of 1:2 (w/w), and were harvested 48 h post transfection. The cell-surface expression was measured as described above.
The IP-One Gq assay kit (Cisbio Bioassays, 62IPAPEB) was used to measure the peptide agonist-induced IP production. […] Then, the cells were supplemented with 3 μl cryptate-labeled anti-IP1 monoclonal antibody (1:20 diluted in lysis and detection buffer) and 3 μl d2-labeled IP1, and incubated at room temperature for another 1 h. […] The accumulation of IP1, EC50, and pEC50 were calculated using nonlinear regression (curve fit) according to a standard dose–response curve in GraphPad Prism 8.0 (GraphPad software).

FPR2 [4] = molecular target: T2, FPR2 (Homo sapiens, UniProt P25090, S211L); assay: Competition binding: inhibition of WK(FITC)YMVm binding to FPR2 (wild type and mutants), HEK293F cells; details: FPR2 Construct 2, mean ± SEM
T2 construct: expressed in transfected cells; host or cells: HEK293F cells, pTT5 vector
Description: as §1, §2

FPR1 = assay: Competition binding: inhibition of WK(FITC)YMVm binding to FPR1 (wild type and mutants), HEK293F cells; parameters: species or system human; details: FPR1 F81L, F102H, Y257F and their combination
Description: as §1, §2

T2 sequence (P25090 with tags, fused parts or gaps S211L): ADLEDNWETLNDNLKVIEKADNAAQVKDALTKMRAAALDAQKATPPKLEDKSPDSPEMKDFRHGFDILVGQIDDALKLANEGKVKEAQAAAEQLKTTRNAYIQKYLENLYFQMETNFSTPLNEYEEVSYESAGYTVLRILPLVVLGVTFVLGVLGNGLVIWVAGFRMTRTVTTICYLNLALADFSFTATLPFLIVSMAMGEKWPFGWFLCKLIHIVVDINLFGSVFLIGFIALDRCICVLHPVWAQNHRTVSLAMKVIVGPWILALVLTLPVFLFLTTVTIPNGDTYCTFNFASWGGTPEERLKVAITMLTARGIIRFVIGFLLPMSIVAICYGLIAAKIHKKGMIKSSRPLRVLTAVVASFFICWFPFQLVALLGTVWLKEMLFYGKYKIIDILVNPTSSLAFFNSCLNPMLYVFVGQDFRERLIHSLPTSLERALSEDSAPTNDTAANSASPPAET

Row | Compound | Ki (FPR2 [2]) [nM] | other results
1 | fMLFK [formylated tetrapeptide with a basic C-terminal residue] |  | binding to FPR2 (in words) (FPR2 [1]; compared with fMLFE): more favorable for binding to FPR2
2 | CC[C@H](C)[C@H](NC(=O)[C@H](CCC(=O)O)NC(=O)[C@H](CO)NC(=O)[C@@H](NC(=O)[C@H](C)NC(=O)[C@H](CC(C)C)NC(=O)[C@H](CC(C)C)NC(=O)[C@H](CC(C)C)NC(=O)[C@H](CS)NC(=O)[C@H](CO)NC(=O)[C@H](Cc1ccccc1)NC(=O)CNC(=O)[C@H](CCCNC(=N)N)NC(=O)[C@@H]1CCCN1C(=O)[C@H](C)NC(=O)[C@H](CCSC)NC=O)[C@@H](C)O)C(=O)N[C@@H](CC(=O)O)C(=O)N[C@@H](CC(C)C)C(=O)N1CCC[C@H]1C(=O)N[C@H](C(=O)N[C@@H](CCCCN)C(=O)N[C@@H](CCCNC(=N)N)C(=O)N[C@@H](CCCNC(=N)N)C(=O)N[C@@H](C)C(=O)O)C(C)C [L12A] (For-MAPRGFSCLLLATSEIDLPVKRRA-OH) | 832 | 
3 | CC[C@H](C)[C@H](NC(=O)[C@H](CCC(=O)O)NC(=O)[C@H](CO)NC(=O)[C@@H](NC(=O)[C@H](CC(C)C)NC(=O)[C@H](CC(C)C)NC(=O)[C@H](CC(C)C)NC(=O)[C@H](CC(C)C)NC(=O)[C@H](CS)NC(=O)[C@H](CO)NC(=O)[C@H](Cc1ccccc1)NC(=O)CNC(=O)[C@H](CCCNC(=N)N)NC(=O)[C@@H]1CCCN1C(=O)[C@H](Cc1c[nH]c2ccccc12)NC(=O)[C@H](CCSC)NC=O)[C@@H](C)O)C(=O)N[C@@H](CC(=O)O)C(=O)N[C@@H](CC(C)C)C(=O)N1CCC[C@H]1C(=O)N[C@H](C(=O)N[C@@H](CCCCN)C(=O)N[C@@H](CCCNC(=N)N)C(=O)N[C@@H](CCCNC(=N)N)C(=O)N[C@@H](C)C(=O)O)C(C)C [A2W] (For-MWPRGFSCLLLLTSEIDLPVKRRA-OH) | 46.8 | 
4 | CC[C@H](C)[C@H](NC(=O)[C@H](CC(N)=O)NC(=O)[C@@H](NC(=O)[C@H](Cc1ccccc1)NC(=O)[C@H](Cc1ccc(O)cc1)NC(=O)[C@H](CCSC)NC=O)[C@@H](C)CC)C(=O)N[C@@H](CC(C)C)C(=O)N[C@H](C(=O)N[C@@H](CC(C)C)C(=O)O)[C@@H](C)O [fM9] (For-MYFINILTL-OH) | 1410 | EC50 (FPR2 [3]): 813 nM; Ki (FPR2 [4]): 2630 nM
5 | CC[C@H](C)[C@H](NC(=O)[C@H](CCC(=O)O)NC(=O)[C@H](CO)NC(=O)[C@@H](NC(=O)[C@H](CC(C)C)NC(=O)[C@H](CC(C)C)NC(=O)[C@H](CC(C)C)NC(=O)[C@H](CC(C)C)NC(=O)[C@H](CS)NC(=O)[C@H](CO)NC(=O)[C@H](Cc1ccccc1)NC(=O)CNC(=O)[C@H](C)NC(=O)[C@@H]1CCCN1C(=O)[C@H](C)NC(=O)[C@H](CCSC)NC=O)[C@@H](C)O)C(=O)N[C@@H](CC(=O)O)C(=O)N[C@@H](CC(C)C)C(=O)N1CCC[C@H]1C(=O)N[C@H](C(=O)N[C@@H](CCCCN)C(=O)N[C@@H](CCCNC(=N)N)C(=O)N[C@@H](CCCNC(=N)N)C(=O)N[C@@H](C)C(=O)O)C(C)C [R4A] (For-MAPAGFSCLLLLTSEIDLPVKRRA-OH) | 282 | 
6 | CC[C@H](C)[C@H](NC(=O)[C@H](CCC(=O)O)NC(=O)[C@H](CO)NC(=O)[C@@H](NC(=O)[C@H](CC(C)C)NC(=O)[C@H](CC(C)C)NC(=O)[C@H](CC(C)C)NC(=O)[C@H](CC(C)C)NC(=O)[C@H](CS)NC(=O)[C@H](CO)NC(=O)[C@H](C)NC(=O)CNC(=O)[C@H](CCCNC(=N)N)NC(=O)[C@@H]1CCCN1C(=O)[C@H](C)NC(=O)[C@H](CCSC)NC=O)[C@@H](C)O)C(=O)N[C@@H](CC(=O)O)C(=O)N[C@@H](CC(C)C)C(=O)N1CCC[C@H]1C(=O)N[C@H](C(=O)N[C@@H](CCCCN)C(=O)N[C@@H](CCCNC(=N)N)C(=O)N[C@@H](CCCNC(=N)N)C(=O)N[C@@H](C)C(=O)O)C(C)C [F6A] (For-MAPRGASCLLLLTSEIDLPVKRRA-OH) | 100 | 
7 | Humanin [HN] |  | agonistic activity FPR2 versus FPR1 (in words) (FPR2 [1]): much higher agonistic activity at FPR2 than at FPR1; fold higher binding affinity to FPR2 than Aβ42 (FPR2 [1]): over 15 fold
8 | CC[C@H](C)[C@H](NC(=O)[C@H](CCC(=O)O)NC(=O)[C@H](CO)NC(=O)[C@@H](NC(=O)[C@H](CC(C)C)NC(=O)[C@H](C)NC(=O)[C@H](CC(C)C)NC(=O)[C@H](CC(C)C)NC(=O)[C@H](CS)NC(=O)[C@H](CO)NC(=O)[C@H](Cc1ccccc1)NC(=O)CNC(=O)[C@H](CCCNC(=N)N)NC(=O)[C@@H]1CCCN1C(=O)[C@H](C)NC(=O)[C@H](CCSC)NC=O)[C@@H](C)O)C(=O)N[C@@H](CC(=O)O)C(=O)N[C@@H](CC(C)C)C(=O)N1CCC[C@H]1C(=O)N[C@H](C(=O)N[C@@H](CCCCN)C(=O)N[C@@H](CCCNC(=N)N)C(=O)N[C@@H](CCCNC(=N)N)C(=O)N[C@@H](C)C(=O)O)C(C)C [L11A] (For-MAPRGFSCLLALTSEIDLPVKRRA-OH) | 631 | 
9 | CC[C@H](C)[C@H](NC(=O)[C@H](CCC(=O)O)NC(=O)[C@H](CO)NC(=O)[C@@H](NC(=O)[C@H](CC(C)C)NC(=O)[C@H](CC(C)C)NC(=O)[C@H](CC(C)C)NC(=O)[C@H](CC(C)C)NC(=O)[C@H](CS)NC(=O)[C@H](CO)NC(=O)[C@H](Cc1ccccc1)NC(=O)CNC(=O)[C@H](CCCNC(=N)N)NC(=O)[C@H](C)NC(=O)[C@H](C)NC(=O)[C@H](CCSC)NC=O)[C@@H](C)O)C(=O)N[C@@H](CC(=O)O)C(=O)N[C@@H](CC(C)C)C(=O)N1CCC[C@H]1C(=O)N[C@H](C(=O)N[C@@H](CCCCN)C(=O)N[C@@H](CCCNC(=N)N)C(=O)N[C@@H](CCCNC(=N)N)C(=O)N[C@@H](C)C(=O)O)C(C)C [P3A] (For-MAARGFSCLLLLTSEIDLPVKRRA-OH) | 813 | 
10 | CSCC[C@H](NC=O)C(=O)N[C@@H](CC(C)C)C(=O)N[C@@H](Cc1ccccc1)C(=O)O [fMLF, N-formyl–Met–Leu–Phe] |  | effect of mutations on binding affinity (in words) (FPR1): little effect on the binding affinity; agonism at FPR2 (in words) (FPR2 [1]): weak agonist

Reference: publication PMC8976073 (Nature Communications, 2022)
